Results published in PMC7054612, “In vitro and in vivo pharmacokinetic characterization of LMT-28 as a novel small molecular interleukin-6 inhibitor” (Asian-Australasian Journal of Animal Sciences, 2019).
In brackets after ≈: the same amount, converted by molar mass. Read-outs that look alike come from different tables or passages of the source.

Tests used:
[1] = Equilibrium solubility in water, 24 h shake-flask method; type: physicochemical; conditions: thermodynamic from solid, 25°C
Description: (§1) The shake-flask method was applied to measure the equilibrium solubility of LMT-28 [16, 17]. Excess amount of LMT-28 was added into the water and the suspension was shaken at 25°C during 24 h in a flask for equilibrium solubility. The solution, then, was filtered and the concentration of LMT-28 in the filtered solution was quantified using ultra HPLC (ThermoFisher Scientific, Waltham, MA, USA) at wavelength 254 nm. The lipophilicity of LMT-28 was measured by using GLpKa (Pion, Cambridge, MA, USA) based on dip-probe absorption spectroscopy (D-PAS) method. The resultant values were calculated by LogP software (Pion, USA) and the computational predictions for number of hydrogen bond donors, hydrogen bond acceptors, rotatable bonds and predicted polar surface area (PSA) and LogS were made using Percepta software (ACD/Labs; Toronto, Canada).

[2] = Metabolic stability in rat liver microsomes; type: in vitro ADME; conditions: pH 7.4
Description: (§2) Metabolic stability using rat and human liver microsomes (Corning Gentest, USA) of LMT-28 was performed according to previous reported protocol. In brief, NADPH regeneration solution (Corning Gentest, USA) was added to initiate the metabolic reaction after mixing LMT-28 (final concentrations; 1 μM) with human or rat liver microsomes (0.5 mg protein/mL) in 100 mM potassium phosphate buffer (pH 7.4). After incubation at 37°C at 0, 10, 30, and 60 min, the reaction was terminated by adding three times of ice-cold acetonitrile containing internal standard (carbamazepine 10 ng/mL). After mixing by vortex and centrifugation at 10,000 g for 5 min at 4°C, the supernatants were transferred to fresh LC vials. Samples (5 μL) were analyzed by directly injection into a liquid chromatography-tandem mass spectrometry (LC-MS/MS) system for the quantification of LMT-28.
(§3) The metabolic half-life and in vitro intrinsic clearance of LMT-28 were calculated by next equations [19].
(§4) Half-life (t1/2) (h)=-0.693/KCLint,in vitro(μL/min/mg protein)=(0.693/t1/2,microsomal)×(μL incubation/mg microsomal protein)CLint,in vivo(mL/min/kg)=(0.693/t1/2,microsomal)×(mL incubation/mg microsomal protein)×(mg microsomal protein/g liver)×(g liver/kg body weight)
(§5) where K is the elimination rate constant of LMT-28 in the microsomal metabolic reaction, half-life (t1/2) is microsomal metabolic half-life, CLint, in vitro is in vitro intrinsic clearance, and CLint, in vivo is in vivo intrinsic clearance. The liver weight relative to the body weight in the rat and human are 40 and 21 g/kg, respectively.

[3] = test system: IL-6-induced STAT3 activation; test: Western blot analysis for inhibitory effect on IL-6-induced signaling (p-STAT3) in HepG2 cells; type: cell-based; conditions: HepG2 cells pre-treated with LMT-28 (1, 3, 10, 30, 100 μM) for 1 h, then IL-6 10 ng/mL for 10 min; Western blotting
Description: HepG2 cells were seeded in MEM media (Welgene, Gyeongsan, Korea) with 10% (v/v) feta bovine serum, streptomycin (100 U/mL), and penicillin (100 U/mL; Life Technologies, Carlsbad, CA, USA). After seeding, cells were starved overnight, treated with LMT-28 for 1 h, and stimulated with IL-6 (10 ng/mL; R&D Systems, Minneapolis, MN, USA) for 10 min. Cells were treated with cell lysis buffer (Promega, Madison, WI, USA) for 30 min on ice. Cell lysates were separated on an 8% sodium dodecyl sulfate-polyacrylamide gel electrophoresis gel, then transferred to nitrocellulose membranes (Schleicher & Schuell, Dassel, Germany). The membranes were blocked overnight in Tris-buffered solution (50 mM Tris-HCl [pH 7.4], 150 mM NaCl, 0.1% Tween 20) containing 5% nonfat dry milk at 4°C and then incubated for 1 h with the appropriate primary Abs against p-STAT3 (MilliporeSigma, Burlington, MA, USA) or α-tubulin in Tris-buffered solution (TBST; 50 mM Tris-HCl [pH 7.4], 150 mM NaCl, 0.1% Tween 20) containing 5% nonfat dry milk at room temperature. The membranes were washed (10 min, five times) and incubated for 1 h with horseradish peroxidase-conjugated secondary Abs diluted to 1:6,000. After 10 washes, the membranes were incubated with enhanced chemiluminescence reagents (MilliporeSigma, USA) and chemiluminescent signals were visualized using X-ray film.

[4] = Stability during sample handling and processing for LC-MS/MS analysis in biological fluids; conditions: plasma or microsomal reaction solution
Description: (§6) The concentrations of LMT-28 in plasma or microsomal reaction solution were determined by LC-MS/MS. For the sample preparation before LC-MS/MS analysis, three times (75 μL) of acetonitrile containing internal standard (carbamazepine 10 ng/mL) were added to 25 μL aliquots of the plasma samples. The samples were vortex-mixed and centrifuged at 10,000 g for 5 min at 4°C for the protein precipitation. The supernatant (90 μL) was transferred to LC vials and 5 μL was injected onto a LC-MS/MS system.
(§7) Mass spectrometric detection of LMT-28 was performed on an API 4000 Qtrap mass spectrometer (AB Sciex, Foster City, CA, USA) equipped with a positive electrospray ionization source. The chromatographic separation was performed on Hypersil Gold C18 column (50 mm×2.1 mm i.d., 3 μm particle size; ThermoFisher Scientific, USA) with a flow rate of 0.3 mL/min. The positive multiple reaction monitoring (MRM) mode were based on the most abundant product ions at m/z 312 → 165 for LMT-28, and m/z 237 → 194 for internal standard. Other parameters were the nebulizing (GS1), 50 psi; heating (GS2), 50 psi; collision energy, 23 eV for LMT-28 and 15 eV for internal standard, respectively. Analyst software version 1.4.2 (AB Sciex, USA) was used for the analysis of LMT-28 concentrations.

[5] = Plasma protein binding assay; type: in vitro ADME
[6] = In vivo pharmacokinetic study in male BALB/c mice; conditions: for AUC(0-t): n = 4, read-out: AUC8h; for half-life: n = 4, read-out: t1/2 (terminal elimination half-life) (converted)
Description: To evaluate in vivo pharmacokinetics in mice, LMT-28 was dissolved in phosphate-buffered saline (pH 7.4) containing 5% (w/v) carboxymethyl cellulose (MilliporeSigma, USA) and administered orally by using oral needle and intravenously in the mouse tail vein at the dose of 5 mg/kg to male BALB/c mice (22 to 25 g) after overnight fasting. Blood samples (50 μL) were collected at 0.5, 1, 2, 4, 6, and 8 h after oral administration of LMT-28. After taking the blood samples from mice, the samples were centrifuged to obtain plasma samples at 4°C and 10,000 g and obtained plasma samples were stored at −20°C. These plasma samples (25 μL) were used for the quantification of LMT-28 concentration in mice.
as §6, §7
The plasma concentrations versus time profiles of LMT-28 in mice were analyzed by a non-compartmental model using WinNonlin software ver 5.3 (Pharsight, Mountain View, CA, USA). The pharmacokinetic parameters such as area under the plasma concentration-time curve (AUC), peak plasma concentration (Cmax) and the time to reach a peak concentration (Tmax), terminal elimination half-life (t1/2), mean residence time (MRT) after oral administration were obtained from each mouse’s plasma concentration-time plots for LMT-28. All data were expressed as the mean±standard deviation. A value of p<0.05 by student t-test or analysis of variance analysis was considered to be statistically significant.

[7] = Lipophilicity (LogP) by GLpKa, D-PAS method; type: physicochemical
Description: as §1

[8] = MDCK cell permeability assay; type: in vitro ADME, canine; conditions: dog, MDCK cell monolayers
Description: In order to determine cell permeability of LMT-28, Madin-Darby canine kidney (MDCK) cells were cultured and seeded at a density of 6×10^4cells/cm^2 in 12-well Transwell plates. After checking cell monolayer integrity, the transepithelial electrical resistance (TEER) values (>500 ohms) were measured using an EVOM epithelial voltohmmeter (World Precision Instruments, Sarasota, FL, USA). After pre-incubation for 30 min at 37°C, LMT-28 (final concentrations of 2, 10, and 50 μM) was added to the donor wells in transport assay system. Sample aliquots (100 μL) were collected every 30 min for 120 min, and the same volume of fresh buffer added. The aliquots were stored at −20°C until quantitative analysis of LMT-28 concentrations by LC–MS/MS system. The apparent permeability coefficient (Papp, cm/s) was calculated as following equation: […]
where dQ/dt is the permeation rate across cell monolayer, A is the surface area of the monolayer (0.33 cm^2), and C0 is the initial donor concentration.

[9] = Metabolic stability in human liver microsomes; type: in vitro ADME; conditions: pH 7.4
Description: as §2, §3, §4, §5

[10] = mouse, plasma, intravenous (i.v) 5 mg/kg, n = 4
[11] = mouse, plasma, intravenous (i.v) 5 mg/kg
[12] = mouse, plasma, oral (p.o.) 5 mg/kg, n = 4
[13] = mouse, plasma, oral (p.o.) 5 mg/kg

- solubility at 24 h [1]: 390 ± 120 µg/mL (≈ 1250 µM)
- half-life at 1 μM ([2]; rat liver microsomes 0.5 mg protein/mL, 1 μM, NADPH, 37°C, read-out: Liver microsomal stability half-life (t1/2, rat)): 0.255 ± 0.0233 h
- microsomal CLint at 1 μM ([2]; rat liver microsomes, calculated from rat microsomal half-life, read-out: In vitro intrinsic clearance CLint, in vitro (Rat)): 91 ± 8.4 µL/min/mg
- CLint scaled at 1 μM ([2]; rat liver microsomes, scaled from rat microsomal half-life, liver weight 40 g/kg, read-out: In vivo intrinsic clearance CLint, in vivo (Rat)): 164 ± 15 mL/min/kg
- Plasma protein to which the drug is bound ([5]; at 2 μM): mostly bound to serum albumin
- fraction unbound at 2 μM ([5]; plasma, read-out: Plasma protein binding (bound drug %) (converted)): 0.076
- bioavailability ([6]; male, BALB/c, mouse, plasma, oral, 5 mg/kg, oral vs intravenous, 5 mg/kg, read-out: F (bioavailability)): ~38.2%
- AUC(0-inf) [6, 10]: 677 ± 264 ng·h/mL
- MRT [6, 10]: 1.58 ± 0.32 h
- clearance [6, 10]: 144 mL/min/kg
- AUC(0-t) [6, 11]: 661 ± 253 ng·h/mL
- Vd ([6]; mouse, plasma, intravenous (i.v) 5 mg/kg, n = 4, read-out: Vss): 12.9 ± 4.66 L/kg
- half-life [6, 11]: 1.37 ± 0.29 h
- AUC(0-inf) [6, 12]: 302 ± 209 ng·h/mL
- Cmax [6, 12]: 137 ± 100 ng/mL
- MRT [6, 12]: 1.9 ± 0.55 h
- Tmax [6, 12]: 0.8 ± 0.67 h
- AUC(0-t) [6, 13]: 292 ± 202 ng·h/mL
- half-life [6, 13]: 1.13 ± 0.27 h
- Share of total AUC (AUC∞) covered by AUC8h ([6]; oral 5 mg/kg): approximately 96.7%
- logP [7]: 3.65 ± 0.22
- Papp at 120 min, 10 μM [8]: 9.7 ± 1.8 ×10⁻⁶ cm/s
- microsomal CLint at 1 μM ([9]; human liver microsomes, calculated from human microsomal half-life, read-out: In vitro intrinsic clearance CLint, in vitro (Human)): 64 ± 8.1 µL/min/mg
- CLint scaled at 1 μM ([9]; human liver microsomes, scaled from human microsomal half-life, liver weight 21 g/kg, read-out: In vivo intrinsic clearance CLint, in vivo (Human)): 60 ± 7.7 mL/min/kg
- half-life at 1 μM ([9]; human liver microsomes 0.5 mg protein/mL, 1 μM, NADPH, 37°C, read-out: Liver microsomal stability half-life (t1/2, human)): 0.365 ± 0.0467 h
SMILES: C=C(CCCCC)[C@@H](O)[C@H](C)C(=O)N1C(=O)OC[C@@H]1C(C)C [LMT-28]
- Inhibition of IL-6-induced p-STAT3 expression [3]: inhibit the IL-6-induced p-STAT3 expression in a dose-dependent manner
- Stability under sample handling and processing [4]: stable under various conditions of sample handling and processing
